Read-outs that look alike come from different tables or passages of the source.
What was measured:
Format in all cases: cell-based
[1] = target: protein kinases (human kinome) (Homo sapiens, UniProt P23443); settings: for logFC: RPS6KB1 (P23443-1)
[2] = target: T1, protein kinases (human kinome) (Homo sapiens, UniProt P29320)
T1 sequence (P29320 21-983): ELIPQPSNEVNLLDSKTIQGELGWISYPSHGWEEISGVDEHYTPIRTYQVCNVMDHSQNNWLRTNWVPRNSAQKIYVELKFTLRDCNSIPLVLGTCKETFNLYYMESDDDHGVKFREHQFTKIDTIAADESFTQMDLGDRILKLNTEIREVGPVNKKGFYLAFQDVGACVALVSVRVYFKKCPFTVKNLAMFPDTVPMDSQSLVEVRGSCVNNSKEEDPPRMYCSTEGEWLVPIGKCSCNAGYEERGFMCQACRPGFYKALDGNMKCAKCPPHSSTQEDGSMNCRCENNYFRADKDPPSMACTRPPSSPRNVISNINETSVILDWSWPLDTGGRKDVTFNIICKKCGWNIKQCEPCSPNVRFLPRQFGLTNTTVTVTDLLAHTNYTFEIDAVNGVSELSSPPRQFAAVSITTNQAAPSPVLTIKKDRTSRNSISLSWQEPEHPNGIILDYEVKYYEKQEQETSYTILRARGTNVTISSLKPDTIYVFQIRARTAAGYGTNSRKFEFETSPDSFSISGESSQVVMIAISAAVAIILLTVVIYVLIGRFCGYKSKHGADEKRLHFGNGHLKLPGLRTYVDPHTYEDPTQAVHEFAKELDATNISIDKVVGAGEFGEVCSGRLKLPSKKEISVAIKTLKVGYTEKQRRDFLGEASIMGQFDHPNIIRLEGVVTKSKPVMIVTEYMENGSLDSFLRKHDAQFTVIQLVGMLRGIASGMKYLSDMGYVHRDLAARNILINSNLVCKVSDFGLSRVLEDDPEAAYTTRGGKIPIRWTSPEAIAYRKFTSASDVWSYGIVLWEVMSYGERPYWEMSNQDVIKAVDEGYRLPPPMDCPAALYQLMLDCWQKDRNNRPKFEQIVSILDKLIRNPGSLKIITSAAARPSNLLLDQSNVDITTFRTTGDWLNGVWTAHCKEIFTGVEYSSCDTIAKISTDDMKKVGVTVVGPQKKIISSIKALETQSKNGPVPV

[3] = target: protein kinases (human kinome) (Homo sapiens, UniProt P53350); settings: PLK1 P53350
[4] = target: protein kinases (human kinome) (Homo sapiens, UniProt Q9NYL2)
[5] = target: protein kinases (human kinome) (Homo sapiens, UniProt Q9Y4K4); settings: MAP4K5 (Q9Y4K4)
[6] = target: protein kinases (human kinome) (Homo sapiens, UniProt Q16659)
[7] = target: protein kinases (human kinome) (Homo sapiens, UniProt Q9BYT3); settings: STK33 (Q9BYT3-1)
[8] = target: protein kinases (human kinome) (Homo sapiens, UniProt Q9NSY1); settings: BMP2K Q9NSY1

Sequence of protein kinases (human kinome) (Homo sapiens, UniProt P23443) (P23443 whole entry): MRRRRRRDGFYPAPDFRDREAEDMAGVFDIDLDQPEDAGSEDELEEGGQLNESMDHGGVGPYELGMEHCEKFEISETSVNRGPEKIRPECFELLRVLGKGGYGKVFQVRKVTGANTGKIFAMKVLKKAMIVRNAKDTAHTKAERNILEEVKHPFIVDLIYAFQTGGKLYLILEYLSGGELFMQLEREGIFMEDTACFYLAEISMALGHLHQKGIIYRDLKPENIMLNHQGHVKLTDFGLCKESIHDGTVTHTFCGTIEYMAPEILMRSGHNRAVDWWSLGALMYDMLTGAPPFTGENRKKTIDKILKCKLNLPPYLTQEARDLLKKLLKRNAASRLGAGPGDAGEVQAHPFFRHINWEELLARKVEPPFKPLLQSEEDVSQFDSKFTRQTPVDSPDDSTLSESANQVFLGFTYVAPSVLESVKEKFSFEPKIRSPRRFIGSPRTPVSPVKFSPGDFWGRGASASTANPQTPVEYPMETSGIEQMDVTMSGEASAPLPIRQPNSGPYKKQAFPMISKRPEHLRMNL
Sequence of protein kinases (human kinome) (Homo sapiens, UniProt Q9BYT3) (Q9BYT3 whole entry): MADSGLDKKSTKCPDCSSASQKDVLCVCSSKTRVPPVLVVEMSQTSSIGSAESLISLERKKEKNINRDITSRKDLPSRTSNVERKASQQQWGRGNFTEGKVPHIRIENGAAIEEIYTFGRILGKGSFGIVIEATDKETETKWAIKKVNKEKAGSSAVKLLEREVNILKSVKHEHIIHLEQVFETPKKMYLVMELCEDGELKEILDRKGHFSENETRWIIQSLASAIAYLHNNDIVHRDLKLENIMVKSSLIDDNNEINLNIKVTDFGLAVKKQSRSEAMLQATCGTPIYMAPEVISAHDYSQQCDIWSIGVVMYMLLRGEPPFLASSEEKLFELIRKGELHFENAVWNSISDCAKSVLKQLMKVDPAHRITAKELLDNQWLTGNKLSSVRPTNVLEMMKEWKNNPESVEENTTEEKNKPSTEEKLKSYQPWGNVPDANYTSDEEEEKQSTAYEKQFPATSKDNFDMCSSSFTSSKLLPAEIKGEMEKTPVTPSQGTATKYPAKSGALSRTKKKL
Sequence of protein kinases (human kinome) (Homo sapiens, UniProt P53350) (P53350 whole entry): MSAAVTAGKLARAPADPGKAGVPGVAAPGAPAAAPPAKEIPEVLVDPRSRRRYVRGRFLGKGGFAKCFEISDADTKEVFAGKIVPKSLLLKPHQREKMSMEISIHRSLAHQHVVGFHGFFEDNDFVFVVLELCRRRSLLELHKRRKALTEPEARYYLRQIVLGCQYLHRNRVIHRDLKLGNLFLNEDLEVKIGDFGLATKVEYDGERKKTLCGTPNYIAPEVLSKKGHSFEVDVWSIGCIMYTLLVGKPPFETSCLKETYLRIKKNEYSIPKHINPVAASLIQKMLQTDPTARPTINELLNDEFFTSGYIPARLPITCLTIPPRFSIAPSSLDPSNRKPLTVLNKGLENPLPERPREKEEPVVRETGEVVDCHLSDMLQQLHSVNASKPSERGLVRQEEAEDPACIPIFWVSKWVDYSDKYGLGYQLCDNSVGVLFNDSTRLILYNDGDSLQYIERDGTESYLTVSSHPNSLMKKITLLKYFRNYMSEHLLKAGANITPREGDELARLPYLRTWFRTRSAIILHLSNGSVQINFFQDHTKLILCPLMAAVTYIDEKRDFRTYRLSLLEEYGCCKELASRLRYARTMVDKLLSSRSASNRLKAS
Sequence of protein kinases (human kinome) (Homo sapiens, UniProt Q9Y4K4) (Q9Y4K4 whole entry): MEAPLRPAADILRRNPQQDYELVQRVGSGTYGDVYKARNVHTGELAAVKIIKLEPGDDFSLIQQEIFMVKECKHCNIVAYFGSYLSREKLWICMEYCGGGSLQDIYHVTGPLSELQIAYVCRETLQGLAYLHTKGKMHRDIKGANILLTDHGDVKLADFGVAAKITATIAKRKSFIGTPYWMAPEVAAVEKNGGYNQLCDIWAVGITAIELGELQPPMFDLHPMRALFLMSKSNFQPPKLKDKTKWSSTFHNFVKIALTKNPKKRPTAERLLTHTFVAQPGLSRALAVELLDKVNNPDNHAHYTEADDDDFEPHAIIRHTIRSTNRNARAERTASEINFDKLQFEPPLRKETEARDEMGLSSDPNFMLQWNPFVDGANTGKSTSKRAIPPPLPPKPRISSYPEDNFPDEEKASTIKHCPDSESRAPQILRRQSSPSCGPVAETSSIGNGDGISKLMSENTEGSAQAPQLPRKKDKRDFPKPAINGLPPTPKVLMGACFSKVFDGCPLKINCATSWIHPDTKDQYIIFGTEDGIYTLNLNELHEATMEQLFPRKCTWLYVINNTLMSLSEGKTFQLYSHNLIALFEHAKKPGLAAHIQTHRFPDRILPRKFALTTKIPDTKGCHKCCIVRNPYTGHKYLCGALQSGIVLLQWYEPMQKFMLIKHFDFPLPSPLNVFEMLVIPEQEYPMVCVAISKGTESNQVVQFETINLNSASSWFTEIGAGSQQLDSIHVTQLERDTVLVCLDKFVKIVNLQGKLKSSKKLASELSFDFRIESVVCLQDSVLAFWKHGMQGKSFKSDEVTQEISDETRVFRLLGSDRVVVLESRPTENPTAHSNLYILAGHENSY
Sequence of protein kinases (human kinome) (Homo sapiens, UniProt Q16659) (Q16659 whole entry): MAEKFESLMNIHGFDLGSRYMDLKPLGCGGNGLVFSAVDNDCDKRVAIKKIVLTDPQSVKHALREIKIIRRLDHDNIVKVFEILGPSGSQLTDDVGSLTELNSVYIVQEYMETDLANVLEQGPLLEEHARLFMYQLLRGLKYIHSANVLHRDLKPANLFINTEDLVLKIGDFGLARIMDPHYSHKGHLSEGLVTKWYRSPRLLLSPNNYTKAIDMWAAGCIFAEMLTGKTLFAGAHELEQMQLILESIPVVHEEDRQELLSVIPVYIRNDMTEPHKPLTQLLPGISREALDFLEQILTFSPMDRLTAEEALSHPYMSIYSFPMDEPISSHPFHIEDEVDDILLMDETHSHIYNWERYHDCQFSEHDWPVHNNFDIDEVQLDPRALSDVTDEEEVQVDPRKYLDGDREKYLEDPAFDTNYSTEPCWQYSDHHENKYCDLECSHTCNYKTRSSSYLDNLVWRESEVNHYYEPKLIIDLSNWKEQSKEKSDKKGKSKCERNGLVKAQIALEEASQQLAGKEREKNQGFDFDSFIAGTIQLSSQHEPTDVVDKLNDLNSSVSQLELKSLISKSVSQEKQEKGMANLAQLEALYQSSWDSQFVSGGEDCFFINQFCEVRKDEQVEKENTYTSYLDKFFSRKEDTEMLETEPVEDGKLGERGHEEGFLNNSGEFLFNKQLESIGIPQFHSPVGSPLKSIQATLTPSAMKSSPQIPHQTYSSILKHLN
Sequence of protein kinases (human kinome) (Homo sapiens, UniProt Q9NYL2) (Q9NYL2 whole entry): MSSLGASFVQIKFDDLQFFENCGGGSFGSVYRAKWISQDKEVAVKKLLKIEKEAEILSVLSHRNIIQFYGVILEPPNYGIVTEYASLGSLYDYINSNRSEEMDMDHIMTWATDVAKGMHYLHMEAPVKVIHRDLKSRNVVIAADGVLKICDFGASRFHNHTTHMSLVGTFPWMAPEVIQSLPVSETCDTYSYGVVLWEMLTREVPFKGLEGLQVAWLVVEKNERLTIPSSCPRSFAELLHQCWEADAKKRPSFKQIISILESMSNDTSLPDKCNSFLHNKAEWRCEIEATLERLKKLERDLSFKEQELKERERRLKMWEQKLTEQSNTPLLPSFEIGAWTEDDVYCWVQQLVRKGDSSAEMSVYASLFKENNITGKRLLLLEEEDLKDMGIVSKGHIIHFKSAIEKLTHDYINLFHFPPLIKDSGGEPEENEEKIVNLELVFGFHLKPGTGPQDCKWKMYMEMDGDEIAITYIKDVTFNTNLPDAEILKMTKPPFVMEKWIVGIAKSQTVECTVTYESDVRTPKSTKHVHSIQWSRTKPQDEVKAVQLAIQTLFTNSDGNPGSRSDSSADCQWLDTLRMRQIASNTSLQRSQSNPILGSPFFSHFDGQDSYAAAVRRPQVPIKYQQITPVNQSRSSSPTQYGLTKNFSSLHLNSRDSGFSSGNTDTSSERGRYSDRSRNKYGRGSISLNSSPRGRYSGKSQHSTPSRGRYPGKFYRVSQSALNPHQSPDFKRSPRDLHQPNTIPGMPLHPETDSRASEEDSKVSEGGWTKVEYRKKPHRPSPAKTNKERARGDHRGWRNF

Cc1ncsc1-c1ccc([C@H](C)NC(=O)[C@@H]2C[C@@H](O)CN2C(=O)[C@@H](NC(=O)CCCCCN2CCc3cc(Nc4ncc(C5CC5)c(NCCCNC(=O)C5CCC5)n4)ccc3C2)C(C)(C)C)cc1 [BSJ.05.026]
logFC of RPS6KB1 (P23443-1) ([1]; Experiment wp195): −0.5629 | logFC ([1]; experiment wp195): −0.5629

Cc1ccc(NC(=O)c2cccc(C(F)(F)F)c2)cc1N1Cc2cnc(Nc3ccc(N4CCN(Cc5cn(CCCCCOc6cccc7c6C(=O)N(C6CCC(=O)NC6=O)C7=O)nn5)CC4)nc3)nc2N(C)C1=O (stereo not drawn) [DB0646, N-(3-(7-((6-(4-((1-(5-((2-(2,6-Dioxopiperidin-3-yl)-1,3-dioxoisoindolin-4-yl)oxy)pentyl)-1H-1,2,3-triazol-4-yl)methyl)piperazin-1-v)pyridin-3-yl)amino)-1-methyl-2-oxo-1,4-dihydropyrimido[4,5-d]pyrimidin-3(2H)-yl)-4-methylphenyl)-3-(trifluoromethyl)benzamide]
logFC EPHA3 ([2]; Accession P29320, experiment wp045, direction down): −0.5333 | logFC EPHA3 ([2]; Accession P29320, experiment wp103, direction down): −0.3715 | logFC EPHA3 ([2]; Accession P29320, experiment wp107, direction down): −0.4346 | logFC EPHA3 ([2]; Accession P29320, experiment wp117, direction down): −0.3587 | logFC EPHA3 ([2]; Accession P29320, experiment wp152, direction down): −0.3871 | logFC EPHA3 ([2]; Accession P29320, experiment wp160, 4 hr, direction down): −0.5814 | logFC EPHA3 ([2]; Accession P29320, experiment wp160, 8 hr, direction down): −0.5528 | logFC EPHA3 ([2]; EPHA3 (P29320), experiment wp045): −0.5333 | logFC EPHA3 ([2]; EPHA3 (P29320), experiment wp103): −0.3715 | logFC EPHA3 ([2]; EPHA3 (P29320), experiment wp107): −0.4346 | logFC EPHA3 ([2]; EPHA3 (P29320), experiment wp117): −0.3587 | logFC EPHA3 ([2]; EPHA3 (P29320), experiment wp152): −0.3871 | logFC EPHA3 ([2]; EPHA3 (P29320), experiment wp160, 4 hr): −0.5814 | logFC EPHA3 ([2]; EPHA3 (P29320), experiment wp160, 8 hr): −0.5528 | logFC ([3]; experiment wp152): −0.331 | logFC PLK1 ([3]; experiment wp152): −0.331 | logFC MAP3K20 (Q9NYL2) ([4]; Experiment wp045): −0.4248 | logFC MAP3K20 (Q9NYL2) ([4]; Experiment wp107): −0.53 | logFC MAP3K20 (Q9NYL2) ([4]; Experiment wp160, 2 hr): −0.3293 | logFC MAP3K20 ([4]; MAP3K20 Q9NYL2; experiment wp045): −0.4248 | logFC MAP3K20 ([4]; MAP3K20 Q9NYL2; experiment wp107): −0.53 | logFC MAP3K20 ([4]; MAP3K20 Q9NYL2; experiment wp152): −0.6556 | logFC MAP3K20 ([4]; MAP3K20 Q9NYL2; experiment wp160, 2 hr): −0.3293 | logFC MAP3K20 ([4]; MAP3K20 Q9NYL2; experiment wp160, 4 hr): −0.6192 | logFC MAP3K20 ([4]; MAP3K20 Q9NYL2; experiment wp160, 8 hr): −0.9197 | logFC MAP3K20 ([4]; MAP3K20 Q9NYL2; experiment wp160; 4 hr): −0.6192 | logFC MAP3K20 ([4]; MAP3K20 Q9NYL2; experiment wp160; 8 hr): −0.9197 | logFC MAP3K20 ([4]; MAP3K20 Q9NYL2; experiment wp172): −0.3864 | logFC MAP3K20 (Q9NYL2) ([4]; experiment wp152): −0.6556 | logFC ([5]; experiment wp045): −0.4109 | logFC ([5]; experiment wp045, direction down): −0.4109 | logFC ([5]; experiment wp107): −0.3345 | logFC ([5]; experiment wp107, direction down): −0.3345 | logFC ([5]; experiment wp160, 8 hr): −0.5009 | logFC ([5]; experiment wp160, 8 hr, direction down): −0.5009

Cc1cnc(Nc2ccc(N3CCN(CCCCCCC(=O)N[C@H](C(=O)N4C[C@H](O)C[C@H]4C(=O)N[C@@H](C)c4ccc(-c5scnc5C)cc4)C(C)(C)C)CC3)cc2)nc1Nc1cccc(S(=O)(=O)NC(C)(C)C)c1 [JWG.123]
logFC of RPS6KB1 (P23443-1) ([1]; Experiment wp195): −0.3426 | logFC ([1]; experiment wp195): −0.3426

Cc1ncsc1-c1ccc([C@H](C)NC(=O)[C@@H]2C[C@@H](O)CN2C(=O)[C@@H](NC(=O)CCCCCN2CCN(c3ccc(Nc4ncc5scc(-c6cccc(NS(C)(=O)=O)c6)c5n4)cc3)CC2)C(C)(C)C)cc1 [RSS0680, (2S,4R)-1-((S)-3,3-Dimethyl-2-(6-(4-(4-((7-(3-(methylsulfonamido)phenyl)thieno[3,2-d]pyrimidin-2-yl)amino)phenyl)piperazin-1-yl)hexanamido)butanoyl)-4-hydroxy-N—((S)-1-(4-(4-methylthiazol-5yl)phenyl)ethyl)pyrrolidine-2-carboxamide]
logFC of RPS6KB1 (P23443-1) ([1]; Experiment wp117): −0.3893 | logFC ([1]; experiment wp080): −0.4358 | logFC ([1]; experiment wp117): −0.3893 | logFC of RPS6KB1 (P23443-1) ([1]; experiment wp080): −0.4358 | logFC ([6]; MAPK6 Q16659, experiment wp080): −0.5033 | logFC MAPK6 ([6]; MAPK6 Q16659, experiment wp080): −0.5033

CC(C)S(=O)(=O)c1ccccc1Nc1nc(Nc2ccc(N3CCN(CCOCCNC(=O)CNc4cccc5c4C(=O)N(C4CCC(=O)NC4=O)C5=O)CC3)cc2)ncc1Cl (stereo not drawn) [SK.3.91]
logFC of RPS6KB1 (P23443-1) ([1]; Experiment wp107): −0.4197 | logFC ([1]; experiment wp107): −0.4197 | logFC ([3]; experiment wp133, 1 hr): −0.5591 | logFC PLK1 ([3]; experiment wp133, 1 hr): −0.5591 | logFC ([3]; experiment wp133, 2 hr): −0.5804 | logFC PLK1 ([3]; experiment wp133, 2 hr): −0.5804 | logFC ([3]; experiment wp133, 4 hr): −0.7482 | logFC PLK1 ([3]; experiment wp133, 4 hr): −0.7482 | logFC ([6]; MAPK6 (Q16659), experiment wp133, 2 hr): −0.8253 | logFC ([6]; MAPK6 (Q16659), experiment wp133, 2 hr, direction down): −0.8253 | logFC ([6]; MAPK6 (Q16659), experiment wp133, 4 hr): −1.614 | logFC ([6]; MAPK6 (Q16659), experiment wp133, 4 hr, direction down): −1.614 | logFC ([6]; MAPK6 Q16659, experiment wp103): −1.525 | logFC MAPK6 ([6]; MAPK6 Q16659, experiment wp103): −1.525 | logFC ([6]; MAPK6 Q16659, experiment wp107): −1.345 | logFC MAPK6 ([6]; MAPK6 Q16659, experiment wp107): −1.345 | logFC ([7]; experiment wp105): −2.057 | logFC ([7]; experiment wp105, direction down): −2.057 | logFC ([7]; experiment wp172): −2.227 | logFC ([7]; experiment wp172, direction down): −2.227 | logFC ([8]; experiment wp016): −0.4706 | logFC BMP2K ([8]; experiment wp016): −0.4706 | logFC ([8]; experiment wp105): −0.4043 | logFC BMP2K ([8]; experiment wp105): −0.4043

From patent publication US20240269139A1, “COMPOUNDS FOR TARGETED PROTEIN DEGRADATION OF KINASES” (DANA-FARBER CANCER INSTITUTE, INC., priority 2020, published 2024)
